Results on 11 molecules are retold here after patent US11485742B2, “2-azaspiro[3.4]octane derivatives as M4 agonists” (NOVARTIS AG, priority 2019, dated 2022).

Bounds are passed on as bounds.

Type in all cases: cell-based
Assay [1] deals with T1, Cloned human M1 receptor (CHRM1) (Homo sapiens, UniProt P11229).
T1 construct: expressed in transfected cells; host or cells: HEK293
T1 sequence (P11229 1-460): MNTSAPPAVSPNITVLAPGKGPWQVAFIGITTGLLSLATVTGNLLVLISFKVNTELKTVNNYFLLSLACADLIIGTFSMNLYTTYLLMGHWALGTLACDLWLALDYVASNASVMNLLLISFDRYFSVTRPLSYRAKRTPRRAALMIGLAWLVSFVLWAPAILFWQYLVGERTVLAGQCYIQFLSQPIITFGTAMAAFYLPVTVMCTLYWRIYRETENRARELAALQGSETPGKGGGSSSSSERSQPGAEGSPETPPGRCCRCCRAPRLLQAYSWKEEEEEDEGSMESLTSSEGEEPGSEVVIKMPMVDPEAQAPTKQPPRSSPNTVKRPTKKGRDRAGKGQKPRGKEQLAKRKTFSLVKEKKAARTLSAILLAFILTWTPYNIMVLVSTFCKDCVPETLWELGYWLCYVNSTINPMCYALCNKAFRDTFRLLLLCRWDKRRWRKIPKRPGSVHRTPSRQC
In words: CHRM1 Ca++ Flux Assay (HEK293 M1 cells, agonist mode). To be noted: for M1 FDSS PA % / Emax: Percent Activity (PA); for EC50: geometric mean if tested more than once, read-out: M1 FDSS EC50; for Emax: read-out: M1 FDSS PA %. The method, boiled down: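 In agonist mode, compound-induced intracellular Ca++ mobilization was recorded for 3 min by fluorescent imager. The cells were HEK293 stably expressing cloned human CHRM1, in Ca/Mg-free HBSS with 20 mM HEPES. Triplicate 11-point dose-responses were fitted by four-parameter regression and normalized to the carbachol EC100 response.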

Assay [2] concerns the target T2, human cloned CHRM3 receptor (Homo sapiens, UniProt P20309).
T2 construct: expressed in transfected cells; host or cells: CHO-K1 (M3_CHO)
In words: CHRM3 Ca++ Flux Assay (M3_CHO cells, agonist mode). The settings on record: for M3 FDSS PA % / Emax: Percent Activity (PA) measured to EC100 of Carbachol; for EC50: agonist mode, geometric mean if tested more than once, read-out: M3 FDSS EC50; for Emax: read-out: M3 FDSS PA %. The procedure, abridged:
(§1)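 Agonist-mode calcium mobilisation: compounds, 11 concentrations in triplicate, applied to stable M3_CHO or M5_CHO cells loaded with Ca++ dye, fluorescence followed 3 min. Efficacy expressed against carbachol EC100; EC curves by four-parameter nonlinear regression, geometric mean across independent runs.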

For assay [3], the target named is T3, human cloned CHRM5 receptor (Homo sapiens, UniProt P08912).
T3 construct: expressed in transfected cells; host or cells: CHO (M5_CHO)
T3 sequence (P08912 1-532): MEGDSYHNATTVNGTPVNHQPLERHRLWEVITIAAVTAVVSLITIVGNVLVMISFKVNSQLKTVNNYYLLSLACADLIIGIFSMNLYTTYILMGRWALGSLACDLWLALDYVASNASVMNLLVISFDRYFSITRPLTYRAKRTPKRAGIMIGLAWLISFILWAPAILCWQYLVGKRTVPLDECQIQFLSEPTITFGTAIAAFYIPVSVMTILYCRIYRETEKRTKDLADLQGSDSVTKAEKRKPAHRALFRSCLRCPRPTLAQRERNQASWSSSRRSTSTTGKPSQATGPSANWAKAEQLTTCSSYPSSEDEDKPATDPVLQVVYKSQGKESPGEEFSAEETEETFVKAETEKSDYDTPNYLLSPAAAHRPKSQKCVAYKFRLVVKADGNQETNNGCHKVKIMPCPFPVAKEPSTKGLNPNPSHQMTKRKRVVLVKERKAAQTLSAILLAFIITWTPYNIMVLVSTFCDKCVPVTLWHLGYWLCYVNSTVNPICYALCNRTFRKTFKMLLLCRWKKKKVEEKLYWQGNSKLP
The experiment in a line: CHRM5 Ca++ Flux Assay (M5_CHO cells, agonist mode). The settings on record: for M5 FDSS PA % / Emax: Percent Activity (PA) measured to EC100 of Carbachol; for EC50: agonist mode, geometric mean if tested more than once, read-out: M5 FDSS EC50; for Emax: read-out: M5 FDSS PA %. The method, boiled down: as §1

T2 sequence (P20309 whole entry): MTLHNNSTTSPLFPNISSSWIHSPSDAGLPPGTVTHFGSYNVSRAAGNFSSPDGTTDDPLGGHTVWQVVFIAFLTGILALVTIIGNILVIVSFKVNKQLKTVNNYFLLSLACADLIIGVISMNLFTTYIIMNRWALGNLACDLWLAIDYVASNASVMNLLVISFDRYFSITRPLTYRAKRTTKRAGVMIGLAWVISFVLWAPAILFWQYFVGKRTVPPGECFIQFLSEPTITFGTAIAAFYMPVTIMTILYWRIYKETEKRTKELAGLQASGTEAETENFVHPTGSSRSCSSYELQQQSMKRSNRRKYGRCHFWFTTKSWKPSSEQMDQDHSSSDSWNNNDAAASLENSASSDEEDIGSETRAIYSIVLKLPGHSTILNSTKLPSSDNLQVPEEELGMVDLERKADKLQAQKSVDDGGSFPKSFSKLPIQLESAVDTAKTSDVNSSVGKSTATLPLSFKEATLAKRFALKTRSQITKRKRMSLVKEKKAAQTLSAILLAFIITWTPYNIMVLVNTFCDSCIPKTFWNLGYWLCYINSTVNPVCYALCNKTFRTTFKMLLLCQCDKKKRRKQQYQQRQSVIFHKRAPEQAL

`Fc1ccc([C@H]2CCOC2)c(C2CCN([C@@H]3COC4(C3)CN(c3nnco3)C4)CC2)c1` (single isomer, unassigned) [Example 3E, (S)-7-(4-(5-fluoro-2-((R)-tetrahydrofuran-3-yl)phenyl)piperidin-1-yl)-2-(1,3,4-oxadiazol-2-yl)-5-oxa-2-azaspiro[3.4]octane or (S)-7-(4-(5-fluoro-2-((S)-tetrahydrofuran-3-yl)phenyl)piperidin-1-yl)-2-(1,3,4-oxadiazol-2-yl)-5-oxa-2-azaspiro[3.4]octane]: in assay [1], the “M1 FDSS PA %” value stood at 86% and the EC50 was determined as 0.695 µM. Moreover, in assay [2], the “M3 FDSS PA %” value was found to be 0% and the EC50 was more than 25 µM. In addition, in assay [3], the “M5 FDSS PA %” value turned out to be 0% and the EC50 was more than 25 µM.

Consider `CC(C)(O)[C@H]1C[C@H](Oc2ccc(F)cc2C2CCN([C@@H]3COC4(C3)CN(c3nnco3)C4)CC2)C1` (single isomer, unassigned) [Example 2V, 2-((1S,3r)-3-(2-(1-((S)-2-(1,3,4-oxadiazol-2-yl)-5-oxa-2-azaspiro[3.4]octan-7-yl)piperidin-4-yl)-4-fluorophenoxy)cyclobutyl)propan-2-ol or 2-((1R,3s)-3-(2-(1-((S)-2-(1,3,4-oxadiazol-2-yl)-5-oxa-2-azaspiro[3.4]octan-7-yl)piperidin-4-yl)-4-fluorophenoxy)cyclobutyl)propan-2-ol], for which, in assay [1], the “M1 FDSS PA %” value was 31% and the EC50 was found to be 1.65 µM. For the same molecule, in assay [2], the “M3 FDSS PA %” value amounted to 0% and the EC50 is more than 25 µM. In assay [3], the “M5 FDSS PA %” value is recorded as 0% and the EC50 is more than 25 µM.

In the case of `C[C@H](Oc1ccc(F)cc1C1CCN([C@@H]2COC3(C2)CN(c2nnco2)C3)CC1)C1CCOCC1` [Example 2X, (S)-7-(4-(5-fluoro-2-((S)-1-(tetrahydro-2H-pyran-4-yl)ethoxy)phenyl)piperidin-1-yl)-2-(1,3,4-oxadiazol-2-yl)-5-oxa-2-azaspiro[3.4]octane or(S)-7-(4-(5-fluoro-2-((R)-1-(tetrahydro-2H-pyran-4-yl)ethoxy)phenyl)piperidin-1-yl)-2-(1,3,4-oxadiazol-2-yl)-5-oxa-2-azaspiro[3.4]octane], in assay [1], the “M1 FDSS PA %” value was 42% and the EC50 worked out at 11.3 µM. Also, in assay [2], the “M3 FDSS PA %” value is recorded as 0% and the EC50 was more than 25 µM. Also, in assay [3], the “M5 FDSS PA %” value turned out to be 0% and the EC50 is more than 25 µM.

For the molecule `c1ccc(C2CCN([C@@H]3COC4(C3)CN(c3ncco3)C4)CC2)c(OC2COC2)c1` [Example 4C, (S)-2-(oxazol-2-yl)-7-(4-(2-(oxetan-3-yloxy)phenyl)piperidin-1-yl)-5-oxa-2-azaspiro[3.4]octane], the Emax in assay [1] stood at 79%; in assay [2] it was 0%; in assay [3], 0%. Further, the EC50 in assay [1] is 0.382 µM; in assay [2], more than 25 µM; in assay [3], more than 25 µM.

As to `Fc1ccc(OC2COC2)c(C2CCN([C@@H]3COC4(C3)CN(c3nncs3)C4)CC2)c1` [Example 5G, (S)-7-(4-(5-fluoro-2-(oxetan-3-yloxy)phenyl)piperidin-1-yl)-2-(1,3,4-thiadiazol-2-yl)-5-oxa-2-azaspiro[3.4]octane], the Emax in assay [1] turned out to be 88%; in assay [2] it was 0%; in assay [3], 0%. For the same molecule, the figures for the EC50 in assay [1], in assay [2] and in assay [3] were 0.311 µM, more than 25 µM and more than 25 µM, respectively.

In the case of `CC(C)(O)[C@H]1C[C@@H](Oc2ccc(F)cc2C2CCN([C@@H]3COC4(C3)CN(c3ncco3)C4)CC2)C1` (single isomer, unassigned) [Example 4T, 2-((1R,3s)-3-(4-fluoro-2-(1-((S)-2-(oxazol-2-yl)-5-oxa-2-azaspiro[3.4]octan-7-yl)piperidin-4-yl)phenoxy)cyclobutyl)propan-2-ol or 2-((1S,3r)-3-(4-fluoro-2-(1-((S)-2-(oxazol-2-yl)-5-oxa-2-azaspiro[3.4]octan-7-yl)piperidin-4-yl)phenoxy)cyclobutyl)propan-2-ol], in assay [1], the “M1 FDSS PA %” value was 63% and the EC50 is 0.909 µM. In assay [2], the “M3 FDSS PA %” value was 0% and the EC50 was more than 25 µM. Moreover, in assay [3], the “M5 FDSS PA %” value stood at 0% and the 50% effective concentration (EC50) is more than 25 µM.

For the molecule `OC[C@H]1C[C@H](Oc2ccc(F)cc2C2CCN([C@@H]3COC4(C3)CN(c3nnco3)C4)CC2)C1` (single isomer, unassigned) [Example 2HH, ((1S,3r)-3-(2-(1-((S)-2-(1,3,4-oxadiazol-2-yl)-5-oxa-2-azaspiro[3.4]octan-7-yl)piperidin-4-yl)-4-fluorophenoxy)cyclobutyl)methanol or ((1R,3s)-3-(2-(1-((S)-2-(1,3,4-oxadiazol-2-yl)-5-oxa-2-azaspiro[3.4]octan-7-yl)piperidin-4-yl)-4-fluorophenoxy)cyclobutyl)methanol], in assay [1], the “M1 FDSS PA %” value is recorded as 96% and the EC50 was 2.57 µM. In assay [2], the “M3 FDSS PA %” value was found to be 0% and the EC50 is more than 25 µM. In assay [3], the “M5 FDSS PA %” value is recorded as 0% and the EC50 is more than 25 µM.

As for `c1ccc(C2CCN([C@@H]3COC4(C3)CN(c3nnco3)C4)CC2)c(CC2CCOCC2)c1` [Example 3G, (S)-2-(1,3,4-oxadiazol-2-yl)-7-(4-(2-((tetrahydro-2H-pyran-4-yl)methyl)phenyl)piperidin-1-yl)-5-oxa-2-azaspiro[3.4]octane], the Emax was found to be 44% in assay [1], 0% in assay [2] and 0% in assay [3]. The EC50 in assay [1] was 7.24 µM; in assay [2] it was more than 25 µM; in assay [3], more than 25 µM.

Consider `O[C@H]1CC[C@@H](c2ccc(F)cc2C2CCN([C@@H]3COC4(C3)CN(c3nnco3)C4)CC2)CC1` (single isomer, unassigned) [Example 3H, (1R,4s)-4-(2-(1-((S)-2-(1,3,4-oxadiazol-2-yl)-5-oxa-2-azaspiro[3.4]octan-7-yl)piperidin-4-yl)-4-fluorophenyl)cyclohexan-1-ol or (1S,4r)-4-(2-(1-((S)-2-(1,3,4-oxadiazol-2-yl)-5-oxa-2-azaspiro[3.4]octan-7-yl)piperidin-4-yl)-4-fluorophenyl)cyclohexan-1-ol], for which, in assay [1], the “M1 FDSS PA %” value is 84% and the EC50 was found to be 2.41 µM. In addition, in assay [2], the “M3 FDSS PA %” value is on record as 20% and the EC50 is 10.7 µM. Also, in assay [3], the “M5 FDSS PA %” value is reported as 0% and the EC50 is more than 25 µM.

For `Fc1ccc(O[C@H]2CCOC2)c(C2CCN([C@@H]3COC4(C3)CN(c3nncs3)C4)CC2)c1` [Example 5O, (S)-7-(4-(5-fluoro-2-(((S)-tetrahydrofuran-3-yl)oxy)phenyl)piperidin-1-yl)-2-(1,3,4-thiadiazol-2-yl)-5-oxa-2-azaspiro[3.4]octane], the values for the Emax in assay [1], in assay [2] and in assay [3] were 78%, 0% and 0%, respectively. The EC50 in assay [1] was 0.789 µM; in assay [2], more than 25 µM; in assay [3], more than 25 µM.

As for `Fc1ccc(OC[C@@H]2COCCO2)c(C2CCN([C@@H]3COC4(C3)CN(c3nncs3)C4)CC2)c1` [Example 5L, (S)-7-(4-(2-(((S)-1,4-dioxan-2-yl)methoxy)-5-fluorophenyl)piperidin-1-yl)-2-(1,3,4-thiadiazol-2-yl)-5-oxa-2-azaspiro[3.4]octane], the values for the Emax in assay [1], in assay [2] and in assay [3] were 88%, 0% and 0%, respectively. For the same molecule, the figures for the EC50 in assay [1], in assay [2] and in assay [3] were 0.37 µM, more than 25 µM and more than 25 µM, respectively.
